{"source": "patent US20190314312A1", "about": "“COMBINATION THERAPY TO INCREASE ENDOGENOUS NITRIC OXIDE (NO) SYNTHESIS” (Yeda Research and Development Co. Ltd., priority 2016, published 2019)", "type_in_all_cases": "in vivo, mouse", "key": {"C57BL/6J.OlaaHsd mice [1]": {"system": "C57BL/6J.OlaaHsd mice", "test": "DSS-induced colitis, treatment with arginine, citrulline, NaNO2, fisetin or citrulline plus fisetin", "conditions": "for weight loss: 1% DSS 6 days; for Histology score for colitis: FIG. 3D; for clinical improvement in colitis severity: evaluated by change in weight, histological score and colon length, vs control", "protocol": "Colitis was induced in Vav1^Cre:As1^f/f mice and CD11c^Cre:As1^f/f with 1.5% DSS and with 0.8% DSS in the Villin^Cre:As1^f/f (wt/vol), (Dextran Sodium Sulfate, MP Biomedicals; molecular weight 36,000-50,000 Da). The powder was dissolved in the drinking water for 6 days, followed by 5 days of supplementing regular water^20. Each group consisted of eight to ten, 8-10 weeks old, male mice. Experiments were repeated at least three times. “f/f”—flox/flox.\nColonoscopy was performed on days 7 and 11 of the experiment to monitor for severity of colitis. For the procedure, a high resolution mouse video endoscopic system was used, which consists of a miniature endoscope (scope 1.9 mm outer diameter), a xenon light source, a triple chip camera, and an air pump to achieve regulated inflation of the mouse bowel (Karl Storz, Tuttlingen, Germany). Mice were anesthetized by the administration of 4-5% of isoflurane in 100% oxygen at a rate of 0.2-0.5 L/min or by the administration of 100 mg/kg Ketamine/10 mg/kg Xylazine mixture IP, after which, the endoscope was introduced via the anus and the colon was carefully insufflated with an air pump before analysis of the colonic mucosa. The endoscopic procedure was viewed on a color monitor and digitally recorded on tape. Colitis was scored according to the Murine endoscopic index of colitis severity (MEICS), considering differences in the thickness of the bowel wall, changes in blood vessel integrity, mucosal surface, stool consistency or the presence of fibrin, scored each between 0 and 3. The cumulative score ranged from 0 (no signs of inflammation) to 15 (signs of severe inflammation)^21.\nMice were treated with 1% (wt/vol) DSS for 6 days, followed by administration of either arginine 1% (wt/vol) solution (Sigma-Aldrich, St. Louis, Mo., catalogue number A8094) in drinking water, citrulline 1% (wt/vol) (L-citrulline, Chem-Impex International), NaNO2 100 mg (Sigma-Aldrich, St. Louis, Mo., catalogue number S2252), or water as control for additional 6 days.\nFisetin was given by intraperitoneal (i.p.) injection (1 mg/animal) in 30 μL of DMSO twice weekly. The control group was injected with 30 μL of DMSO twice weekly. Each group consisted of ten, 8-weeks old, male mice. Experiments were repeated three times.\nHistopathology. On the day of sacrifice, colons were removed and their length was measured. Colon was fixed in 2.5% PFA solution overnight at 4° C., then embedded in paraffin, sectioned and stained with H&E. Tissues were examined in a blinded manner by a pathologist and scored on a 0-4 scale based on the parameters of inflammation severity^20."}, "As1": {"system": "As1", "test": "Immunohistochemistry staining of distal colon sections for As1", "conditions": "after colitis induction, vs control mice with colitis; FIG. 3E, 4A", "protocol": "Four micrometer paraffin embedded tissue sections were deparaffinized and rehydrated. Endogenous peroxidase was blocked with three percent H2O2 in methanol. Sections undergoing for ALS staining were incubated in cold acetone at −20° C. for 7 minutes. For F4/80 and MAC-2 staining, the present inventors performed antigen retrieval in Tris-EDTA pH 9 and 10 mM citric acid pH 6, for 10 minutes, respectively, using a low boiling program in the microwave to break protein cross-links and unmask antigens. After pre-incubation with 20% normal horse serum and 0.2% Triton X-100 for 1 hour at RT (root temperature), sections were incubated with the primary antibodies as follow; ASL (1:100, Abcam, ab97370, CA, USA); F4/80 (1:50, Serotec, Kidllington, UK); Mac-2 (1:400, Cedarlane, N.C., USA). For fluorescent double-staining of ASL and CD11c the mouse anti ASL (1:50 Santa Cruz Biotechnology, Inc. sc-166787, TX, USA) and rabbit anti CD11c (1:50, ab52632) were used. All antibodies were diluted in PBS containing 2% normal horse serum and 0.2% Triton. Sections were incubated overnight at RT followed by 48 hours at 4° C. Sections were washed three times in PBS and incubated with secondary biotinylated IgG at RT (room temperature) for 1.5 hour, washed three times in PBS and incubated with avidin-biotin Complex (Elite-ABC kit, Vector Lab, CA, USA) at RT for additional 90 minutes followed by DAB (Sigma) reaction. For the fluorescent staining the CY2 conjugated anti mouse and CY3 conjugated streptavidin (1:100 and 1:200 respectively, Jackson ImmunoResearch, West Grove, Pa.) were used."}, "C57BL/6J.OlaaHsd mice [2]": {"system": "C57BL/6J.OlaaHsd mice", "test": "DSS-induced colitis, treatment with arginine, citrulline, NaNO2, fisetin or citrulline plus fisetin", "conditions": "day 12"}, "intestine": {"system": "intestine", "test": "Tunnel staining of intestine (apoptosis)", "conditions": "colitis mice, citrulline vs control; FIGS. 3F-H", "protocol": "Tunnel staining was performed by using ApopTag kit detection according to manufacturer's instructions (Millipore, CA, USA). Stained sections were examined and photographed by a fluorescence or bright field microscope (Eclipse Ni-U; Nikon, Tokyo, Japan) equipped with Plan Fluor objectives (10; 20×; 40×) connected to a monochrome camera (DS-Qi1, Nikon)."}, "enterocytes": {"system": "enterocytes", "test": "FACS analysis of colon epithelial cells (enterocytes) after colitis induction", "protocol": "Colon segment was flushed with cold PBS, longitudinally cut open and rinsed to remove residual luminal contents. Tissue was cut into 3- to 5-mm pieces and incubated in HBSS medium containing EDTA 0.5 M and Hepes 10 mM at 37° C. for 20 minutes, shaken at 180 rpm, to separate epithelial fraction. Supernatant was centrifuged at 4° C. at 500 g for 10 minutes. Recovered tissue was digested in HBSS medium with 2% fetal bovine serum (FBS), 0.05% collagenase II and 0.05% DNase I (Sigma) for 40 minutes. at 37° C., shaken at 180 rpm. LP cells were filtered through 65 μm mesh and centrifuged at 4° C. at 500 g for 10 minutes. The present inventors prepared single cell suspensions from mouse colon by enzymatic digestion and analyzed by polychromatic flow cytometry. Samples were stained with conjugated antibodies or matching isotype controls according to manufacturer's instructions. Data were acquired on an LSRII (BD Biosciences) or FACSCalibur instrument (Becton-Dickinson) with CellQuest software, with a MacsQuant instrument (Miltenyi, Bergisch Gladbach, Germany), and analyzed using BD FACSDiva 6 or FlowJo software (version 7.6.5, or version vX.0.7 Tree Star Inc) or MacsQuant. Colon cells were stained for 30 min at 4° C. in flow cytometry buffer (PBS, 10% FCS and 0.02% azide). For antigens that require intracellular staining (As1, iNOS and S-nitrosocystein), cell surface staining was followed by cell fixation and permeabilization with the Cytofix/Cytoperm kit (BD Biosciences) according to the manufacturer's instructions. For staining, the present inventors used a lineage cocktail of antibodies anti-CD45-APC, Anti-CD64-PE, Anti-CD11c-PB, Anti-326-APC cy7, Anti CD31-PE cy7 (all from BioLegend). After staining for cell surface antigens, intracellular NO was detected by incubation of cells for 15 min at 37° C. with 10 μM DAF-FM diacetate followed by extensive washing, according to the manufacturer's instructions (Molecular Probes). Staining without addition of the DAF-FM probe was considered to be the baseline for gating the positive population. As1 was detected using anti-As1-ALEXA FLUOR® 488 (BD Biosciences), iNOS using anti-iNOS followed by anti-rat 488 (Jackson ImmunoResearch), and nitrosylation using anti-S-nitrosocystein (from abcam) followed by anti-mouse 488 (Jackson ImmunoResearch)."}, "[3]": {"conditions": "then arginine 1%, citrulline 1% or NaNO2 100 mg in drinking water 6 days vs water control, FIG. 3A"}, "[4]": {"conditions": "arginine, citrulline or NaNO2 vs water control, FIG. 3C"}, "[5]": {"conditions": "arginine, citrulline or NaNO2 vs water control"}, "[6]": {"conditions": "arginine, citrulline or NaNO2 vs water control, FIG. 3B"}}, "note": "Entries after “also recorded” stand apart in the source; their conditions may differ.", "data": [{"smiles": "O=N[O-].[Na+]", "note": "[NaNO2]", "values": [{"measurement": "weight loss", "setting": "C57BL/6J.OlaaHsd mice [1]; [3]", "value": "significant weight loss reduction in the control group compared to the three treatments"}, {"measurement": "colon length", "setting": "C57BL/6J.OlaaHsd mice [1]; [4]", "value": "significant reduction in colon length in the control group as compared to the treated colons"}, {"measurement": "Histology score for colitis", "setting": "C57BL/6J.OlaaHsd mice [1]; [5]", "value": "significantly lower"}, {"measurement": "clinical improvement in colitis severity", "setting": "C57BL/6J.OlaaHsd mice [1]; FIG. 3A-D", "value": "significant clinical improvement"}, {"measurement": "As1 expression in distal colon sections (intestine, enterocytes)", "setting": "As1", "value": "reduced expression"}, {"measurement": "endoscopic colitis score", "setting": "C57BL/6J.OlaaHsd mice [2]; [6]", "value": "Significant improvement"}]}, {"smiles": "N=C(N)NCCC[C@H](N)C(=O)O", "note": "[arginine]", "values": [{"measurement": "weight loss", "setting": "C57BL/6J.OlaaHsd mice [1]; [3]", "value": "significant weight loss reduction in the control group compared to the three treatments"}, {"measurement": "colon length", "setting": "C57BL/6J.OlaaHsd mice [1]; [4]", "value": "significant reduction in colon length in the control group as compared to the treated colons"}, {"measurement": "Histology score for colitis", "setting": "C57BL/6J.OlaaHsd mice [1]; [5]", "value": "significantly lower"}, {"measurement": "clinical improvement in colitis severity", "setting": "C57BL/6J.OlaaHsd mice [1]; FIG. 3A-D", "value": "significant clinical improvement"}, {"measurement": "As1 expression in distal colon sections (intestine, enterocytes)", "setting": "As1", "value": "upregulated"}, {"measurement": "endoscopic colitis score", "setting": "C57BL/6J.OlaaHsd mice [2]; [6]", "value": "Significant improvement"}]}, {"smiles": "NC(=O)NCCCC(N)C(=O)O", "note": "(stereo not drawn) [citrulline, 2-Amino-5-(carbamoylamino)pentanoic acid]", "values": [{"measurement": "weight loss", "setting": "C57BL/6J.OlaaHsd mice [1]; [3]", "value": "significant weight loss reduction in the control group compared to the three treatments"}, {"measurement": "weight loss", "setting": "C57BL/6J.OlaaHsd mice [1]; then fisetin 1 mg IP twice, citrulline 1% in drinking water or both vs DMSO control, FIG. 4B", "value": "significant weight loss is documented in the control group compared to the treated mice"}, {"measurement": "effectiveness in alleviating colitis severity compared among arginine, citrulline and NO donor", "setting": "C57BL/6J.OlaaHsd mice [1]; FIG. 3A-D", "value": "the most effective"}, {"measurement": "colon length", "setting": "C57BL/6J.OlaaHsd mice [1]; [4]", "value": "significant reduction in colon length in the control group as compared to the treated colons"}, {"measurement": "Histology score for colitis", "setting": "C57BL/6J.OlaaHsd mice [1]; [5]", "value": "significantly lower"}, {"measurement": "clinical improvement in colitis severity", "setting": "C57BL/6J.OlaaHsd mice [1]; FIG. 3A-D", "value": "significant clinical improvement"}, {"measurement": "colon length", "setting": "C57BL/6J.OlaaHsd mice [1]; fisetin, citrulline or both vs DMSO control, FIG. 4D", "value": "significant longer"}, {"measurement": "histological score", "setting": "C57BL/6J.OlaaHsd mice [1]; fisetin, citrulline or both vs DMSO control, FIG. 4E", "value": "significant reduction"}, {"measurement": "As1 expression in distal colon sections (intestine, enterocytes)", "setting": "As1", "value": "upregulated; also recorded: more pronounce expression"}, {"measurement": "apoptosis in the intestine", "setting": "intestine", "value": "decreased apoptosis; also recorded: increased apoptosis in the control intestine as compare to colon taken from mice treated with citrulline"}, {"measurement": "induction of NO synthesis in enterocytes, citrulline compared with arginine", "setting": "enterocytes; FIGS. 3I-J", "value": "more effective than arginine"}, {"measurement": "NO levels in enterocytes (colon epithelial cells)", "setting": "enterocytes; after colitis induction, treated vs control, FIGS. 3F-J, 4F-I", "value": "increased generation of NO"}, {"measurement": "endoscopic colitis score, citrulline in comparison to arginine", "setting": "C57BL/6J.OlaaHsd mice [2]; FIG. 3B", "value": "more beneficial treatment"}, {"measurement": "endoscopic colitis score", "setting": "C57BL/6J.OlaaHsd mice [2]; [6]", "value": "Significant improvement"}, {"measurement": "endoscopic colitis score", "setting": "C57BL/6J.OlaaHsd mice [2]; fisetin, citrulline or both vs DMSO control, FIG. 4C", "value": "significant improvement"}]}]}
